Measured values as given in patent US20260014075A1, “IONIZABLE LIPID CONTAINING BIODEGRADABLE ESTER BOND AND LIPID NANOPARTICLES COMPRISING SAME” (ST PHARM CO., LTD., priority 2022, published 2026).

Tested on: HeLa cells
Test: In vitro efficacy of mFLuc mRNA-encapsulated lipid nanoparticles, luminescence
Assay type: cell-based
Conditions: 20 ng mFLuc-encapsulated LNP, 24 hours
Description: To determine the efficacy of mRNA-encapsulated lipid nanoparticles in vitro, screening was performed using lipid nanoparticles synthesized with various amine head groups.
The test was conducted by treating 20 ng of mFLuc (SEQ ID NO: 1)-encapsulated lipid nanoparticles into HeLa cells using each lipid nanoparticle synthesized with various amine headgroups (Compounds 1, 2, 4, and 5). The luminescence intensity was measured at 24 hours.

Row | Structure (SMILES) | Relative luminescence mean value | expression effect (luminescence intensity), in words
1 | CCCCCC/C=C\COC(=O)CCCCCCCCN(CCCCCCCCC(=O)OC/C=C\CCCCCC)CCN1CCN(CCCCCCCCC(=O)OC/C=C\CCCCCC)CC1 [Compound 5] | 1022327.75 | highest expression effect
2 | CCCCCC/C=C\COC(=O)CCCCCCCCN(CCCCCCCCC(=O)OC/C=C\CCCCCC)CCCN1CCN(CCCN(CCCCCCCCC(=O)OC/C=C\CCCCCC)CCCCCCCCC(=O)OC/C=C\CCCCCC)CC1 [Compound 4] | 39970.75 | 
